This is an account of results in patent US20260001898A1, “Heteroaryl compounds as inhibitors of TYK2/JAK1, composition and application thereof” (Accro Bioscience (HK) Limited, priority 2022, published 2026).

Structures are written as SMILES.

For test [1], the target named is JAK2 JH1 (Homo sapiens (Human), UniProt O60674). Briefly: Competitive binding assay. The procedure:
(§1) For most assays, kinase-tagged T7 phage strains were prepared in an E. coli host derived from the BL21 strain. E. coli were grown to log-phase and infected with T7 phage and incubated with shaking at 32° C. until lysis. The lysates were centrifuged and filtered to remove cell debris. The remaining kinases were produced in HEK-293 cells and subsequently tagged with DNA for qPCR detection. Streptavidin coated magnetic beads were treated with biotinylated small molecule ligands for 30 minutes at room temperature to generate affinity resins for kinase assays. The liganded beads were blocked with excess biotin and washed with blocking buffer (SeaBlock (Pierce), 1% BSA, 0.05% Tween 20, 1 mM DTT) to remove unbound ligand and to reduce non-specific binding. […] Test compounds were prepared as 111X stocks in 100% DMSO. Dissociation constants (Kds) were determined using an 11-point 3-fold compound dilution series with three DMSO control points. […] The compounds were then diluted directly into the assays such that the final concentration of DMSO was 0.9%. All reactions performed in polypropylene 384-well plate. Each was a final volume of 0.02 ml. […] The beads were then re-suspended in elution buffer (1×PBS, 0.05% Tween 20, 0.5 μM nonbiotinylated affinity ligand) and incubated at room temperature with shaking for 30 minutes. The kinase concentration in the eluates was measured by qPCR.
(§2) An 11-point 3-fold serial dilution of each test compound was prepared in 100% DMSO at 100× final test concentration and subsequently diluted to 1× in the assay (final DMSO concentration=1%). Most Kds were determined using a compound top concentration=30,000 nM. If the initial Kd determined was <0.5 nM (the lowest concentration tested), the measurement was repeated with a serial dilution starting at a lower top concentration.
(§3) Binding constants (Kds) were calculated with a standard dose-response curve using the Hill equation: […]
(§4) The Hill Slope was set to −1.
(§5) Curves were fitted using a non-linear least square fit with the Levenberg-Marquardt algorithm.

Test [2] addresses JAK1 JH1 (Homo sapiens (Human), UniProt P23458). Briefly: Competitive binding assay. The procedure:
as §1, §2, §3, §4, §5

In test [3] the target is TYK2 JH1 (Homo sapiens (Human), UniProt P29597). Briefly: Competitive binding assay. On the procedure:
as §1, §2, §3, §4, §5

Test [4] deals with JAK3 JH1 (Homo sapiens (Human), UniProt P52333). Kind of test: Competitive binding assay. On the procedure:
as §1, §2, §3, §4, §5

The target of test [5] is JAK1 JH2 (Homo sapiens (Human), UniProt P23458). Briefly: Competitive binding assay. The procedure: as §1, §2, §3, §4, §5
In test [6] the target is TYK2 JH2 (Homo sapiens (Human), UniProt P29597). Briefly: Competitive binding assay. The procedure: as §1, §2, §3, §4, §5
Test [7] concerns IFNα induced CXCL-10 in PBMC. Briefly: ELISA of IFNα induced CXCL-10 in PBMC. The class given is cell-based. The procedure:
• 1. Soak plate: Add 300 μL 1× washing solution and let stand for 30 seconds. After discarding the washing solution, anhydrous the microporous plate on absorbent paper. • 2. Add standard: Add 100 μL of 2-fold standard to standard well. Add 100 μL standard dilution (serum/plasma sample) or culture medium (cell culture supernatant sample) to blank well. • 3. Add sample: Serum/plasma: Add 50 μL 1× assay buffer and 50 μL sample to sample well. Cell culture supernatant: Add 100 μL cell culture supernatant to sample well. • 4. Add detection antibody: Add 50 μL diluted detection antibody (1:100 diluted) to each well. Make sure steps 4, 5 and 6 are added continuously without interruption. The sampling process was completed within 15 minutes. • 5. Incubation: Use sealing plate film to seal the plate. Shake at 300 rpm and incubate for 2 hours at room temperature. • 6. Washing: Discard the liquid, add 300 μL of washing solution and wash the plate 6 times. Pat anhydrous on blotting paper after each wash. To obtain the desired experimental performance, the residual liquid must be completely removed. • 7. Enzyme addition: Add 100 μL diluted horseradish peroxidase labeled streptavidin to each well (1:100 diluted). • 8. Incubation: Seal the plate with a new sealing film. Shake at 300 rpm and incubate at room temperature for 45 minutes. • 9. Washing: Repeat […]. • 10. Add substrate for color development: Add 100 μL of color development substrate TMB to each well, keep away from light, and incubate at room temperature for 5-30 minutes. • 11. Add Stop Solution: Add 100 μL stop solution to each well. The color changed from blue to yellow. If the color appears green or the color changes unevenly, gently tap the frame of the plate to mix well. • 12. Assay readout: Within 30 minutes, perform dual wavelength detection using a microplate reader to measure the OD at the absorption maximum at 450 nm and reference wavelengths at 570 nm or 630 nm. The calibrated OD value is the measured value at 450 nm minus the measured value at 570 nm or 630 nm.
A general note: An ELISA detects its analyte on a solid surface through an enzyme-linked reagent.

Test [8] has as its system JAK1/JAK2 pathway. Briefly: Western blot p-STAT1/STAT1 in IFN-γ-stimulated HT-29 cells. To be noted: IFN-γ 100 ng/mL. The class given is cell-based. The procedure:
HT-29 cells were digested by trypsin and suspended in Dulbecco's Modified Eagle Medium (DMEM) and counted. The tested compounds were added into the 6 well plates (400 000/per well). After 2 hours, IFN-γ (100 ng/mL) was added to stimulate cells for 30 minutes. The cells were collected and lysed with protein lysate. The protein was quantitatively tested by BCA kit. Finally, p-STAT1/STAT1 and internal reference protein β-actin were detected by Western blot.
In general terms: Immunoblotting shows a protein as a band on a membrane.

Test [9] relates to IFNα induced TYK2/JAK1 mediated STAT activation. Kind of test: Luciferase assay in L929 ISRE cells stimulated with IFN-α. In kind it is cell-based. The following applies: Mus musculus, IFN-α 100 ng/mL.
Test [10] concerns JAK1 JH2 and TYK2 JH2 versus JAK1 JH1, JAK2 JH1, JAK3 JH1 and TYK2 JH1. Briefly: Competitive binding assay, selectivity JH2 versus JH1 domains. On the procedure:
For most assays, kinase-tagged T7 phage strains were prepared in an E. coli host derived from the BL21 strain. E. coli were grown to log-phase and infected with T7 phage and incubated with shaking at 32° C. until lysis. The lysates were centrifuged and filtered to remove cell debris. The remaining kinases were produced in HEK-293 cells and subsequently tagged with DNA for qPCR detection. Streptavidin coated magnetic beads were treated with biotinylated small molecule ligands for 30 minutes at room temperature to generate affinity resins for kinase assays. The liganded beads were blocked with excess biotin and washed with blocking buffer (SeaBlock (Pierce), 1% BSA, 0.05% Tween 20, 1 mM DTT) to remove unbound ligand and to reduce non-specific binding. […] Test compounds were prepared as 111X stocks in 100% DMSO. Dissociation constants (Kds) were determined using an 11-point 3-fold compound dilution series with three DMSO control points. […] The compounds were then diluted directly into the assays such that the final concentration of DMSO was 0.9%. […] The kinase concentration in the eluates was measured by qPCR.
An 11-point 3-fold serial dilution of each test compound was prepared in 100% DMSO at 100× final test concentration and subsequently diluted to 1× in the assay (final DMSO concentration=1%). Most Kds were determined using a compound top concentration=30,000 nM. […]

The term Kd denotes the free concentration of one partner at which half of the binding sites on the other are occupied at equilibrium, for simple one-to-one binding. In general, IC50 refers to the concentration that gives 50% inhibition. Low values mean inhibition by little substance, high ones a need for much substance.

Sequence of TYK2 JH1 (P29597 897-1176): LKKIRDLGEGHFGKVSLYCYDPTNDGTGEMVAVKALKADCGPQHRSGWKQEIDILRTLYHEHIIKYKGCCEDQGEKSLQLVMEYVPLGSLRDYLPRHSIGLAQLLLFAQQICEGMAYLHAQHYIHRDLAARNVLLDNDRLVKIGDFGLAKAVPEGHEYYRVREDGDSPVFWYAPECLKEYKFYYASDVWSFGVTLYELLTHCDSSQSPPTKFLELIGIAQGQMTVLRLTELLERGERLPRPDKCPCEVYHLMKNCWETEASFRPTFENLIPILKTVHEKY
Sequence of JAK1 JH2 (P23458 583-855): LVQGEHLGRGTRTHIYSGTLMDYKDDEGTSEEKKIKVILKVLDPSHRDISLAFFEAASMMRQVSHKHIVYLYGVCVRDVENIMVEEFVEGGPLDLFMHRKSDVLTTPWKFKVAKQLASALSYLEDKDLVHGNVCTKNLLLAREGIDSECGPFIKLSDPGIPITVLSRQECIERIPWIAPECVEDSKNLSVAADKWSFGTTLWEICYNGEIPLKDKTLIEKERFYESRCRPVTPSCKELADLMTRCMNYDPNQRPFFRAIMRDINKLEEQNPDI
Sequence of TYK2 JH2 (P29597 589-875): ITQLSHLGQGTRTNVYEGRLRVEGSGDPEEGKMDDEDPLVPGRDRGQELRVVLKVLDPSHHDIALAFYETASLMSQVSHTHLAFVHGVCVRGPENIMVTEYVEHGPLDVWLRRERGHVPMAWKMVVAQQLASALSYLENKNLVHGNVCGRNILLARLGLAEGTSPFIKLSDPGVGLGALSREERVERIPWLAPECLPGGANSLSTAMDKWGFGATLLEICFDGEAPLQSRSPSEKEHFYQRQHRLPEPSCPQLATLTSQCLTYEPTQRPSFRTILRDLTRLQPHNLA
Sequence of JAK2 JH1 (O60674 849-1124): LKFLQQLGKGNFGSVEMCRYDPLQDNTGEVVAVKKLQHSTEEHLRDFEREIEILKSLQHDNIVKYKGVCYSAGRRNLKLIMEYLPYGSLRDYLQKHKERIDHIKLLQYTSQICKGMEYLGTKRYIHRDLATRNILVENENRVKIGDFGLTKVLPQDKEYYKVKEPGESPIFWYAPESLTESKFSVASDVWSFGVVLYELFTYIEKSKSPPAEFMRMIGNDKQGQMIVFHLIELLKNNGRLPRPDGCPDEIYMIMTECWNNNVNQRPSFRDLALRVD
Sequence of JAK1 JH1 (P23458 875-1153): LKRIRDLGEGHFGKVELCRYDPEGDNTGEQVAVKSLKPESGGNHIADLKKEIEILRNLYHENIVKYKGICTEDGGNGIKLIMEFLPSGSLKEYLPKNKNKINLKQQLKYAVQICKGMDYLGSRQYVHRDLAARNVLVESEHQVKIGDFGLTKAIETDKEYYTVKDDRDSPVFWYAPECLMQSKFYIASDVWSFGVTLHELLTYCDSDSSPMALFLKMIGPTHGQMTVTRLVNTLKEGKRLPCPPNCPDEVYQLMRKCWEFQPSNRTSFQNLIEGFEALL
Sequence of JAK3 JH1 (P52333 822-1111): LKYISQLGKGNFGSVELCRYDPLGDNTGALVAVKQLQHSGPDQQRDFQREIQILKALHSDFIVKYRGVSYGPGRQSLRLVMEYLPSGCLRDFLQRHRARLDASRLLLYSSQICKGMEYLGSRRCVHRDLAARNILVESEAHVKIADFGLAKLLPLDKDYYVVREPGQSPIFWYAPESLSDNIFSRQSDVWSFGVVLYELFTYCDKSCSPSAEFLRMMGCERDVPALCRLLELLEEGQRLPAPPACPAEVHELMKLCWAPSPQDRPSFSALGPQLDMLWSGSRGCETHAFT

As for `COc1c(Nc2cc(NC(=O)C3CC3)nnc2C(N)=O)cccc1-c1cc(P(=O)(C2CC2)C2CC2)n(C)n1` [Compound A1, 6-(cyclopropanecarboxamido)-4-((3-(5-(dicyclopropylphosphoryl)-1-methyl-1H-pyrazol-3-yl)-2-methoxyphenyl)amino)pyridazine-3-carboxamide], in test [1], the affinity, expressed as Kd, was 790 ± 40 nM and the “affinity to JAK2 JH1” value was “weak affinity”. For the same compound, in [2], the dissociation constant (Kd) came out at 6900 ± 900 nM and the “affinity to JAK1 JH1” value was “weak affinity”. In addition, in [3], the dissociation constant Kd was 550 ± 50 nM and the “affinity to TYK2 JH1” value is “weak affinity”. Moreover, in test [4], the Kd came to 210 ± 15 nM and the “affinity to JAK3 JH1” value is reported as “weak affinity”. Further, in test [5], the affinity, expressed as Kd, was 0.02 ± 0.002 nM and the “affinity to JAK1 JH2” value is “strong affinity”. For the same compound, in test [6], the equilibrium dissociation constant (Kd) is 0.0044 ± 0.003 nM and the “affinity to TYK2 JH2” value is “strong affinity”. In addition, the “inhibition of IFNα induced CXCL-10 in PBMC” value in [7] is “effectively inhibited IFNα induced CXCL-10 in PBMC”. In addition, the half-inhibitory concentration (IC50) in [7] (IFNα induced CXCL-10 in PBMC) was found to be 6.3 nM. The “effect on downstream STAT1 phosphorylation induced by IFN-γ (JAK1/JAK2 pathway)” value in test [8] is recorded as “inhibited JAK1/JAK2 pathway in a concentration-dependent manner”. For the same compound, in test [9] (50 nM compound, read-out: Inhibitory activity % (50 nM)), the inhibition at 0.05 µM came to 34%. In addition, the inhibition at 0.2 µM in [9] (200 nM compound, read-out: Inhibitory activity % (200 nM)) came out at 87%. In test [9] (1000 nM compound, read-out: Inhibitory activity % (1000 nM)), the inhibition at 1 µM worked out at 98%. The “selectivity to bind JAK1 JH2 and TYK2 JH2 than JAK1 JH1, JAK2 JH1, JAK3 JH1 and TYK2 JH1” value in test [10] is listed as “more than 10,000 times”.
